pEC50: −log10 of the molar value.
Test system: LXRα and/or LXRβ
Assay: LXR/LXRE co-transfection assay (luciferase reporter, CV-1 cells)
Format: cell-based, human
Settings: IC50 or EC50 for LXR (LXRα and/or LXRβ, not distinguished), tested as described in Example 109, CV-1 cells
Procedure, shortened: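 Luciferase readout after 20 h compound exposure at 37 °C in CV-1 cells transiently expressing human LXRα or LXRβ with RXRα and an LXRE-driven reporter. Dose-response over 8 points at ½-log spacing, 4 wells each, fitted for EC50/IC50; values average ≥3 independent experiments, efficacy as % of high control.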

| Structure (SMILES) | pEC50 |
| --- | --- |
| COC(=O)c1cccc(-n2nc(C(=O)OC)cc2-c2ccc(-c3cccc(S(C)(=O)=O)c3)s2)c1 [Example 1220, methyl 1-{3-[(methyloxy)carbonyl]phenyl}-5-{5-[3-(methylsulfonyl)phenyl]-2-thienyl}-1H-pyrazole-3-carboxylate] | > 6.00 |
| CC(C)(O)c1cccc(-c2ccc(-c3cc(C(F)(F)F)nn3-c3ccccc3Cl)cc2)c1 [Example 1221, 2-{4′-[1-(2-chlorophenyl)-3-(trifluoromethyl)-1H-pyrazol-5-yl]biphenyl-3-yl}propan-2-ol] | > 6.00 |
| CS(=O)(=O)c1cccc(-c2ccc(-c3cc(C(F)(F)F)nn3CCN3CCOCC3)cc2)c1 [Example 1222, 4-(2-{5-[3′-(methylsulfonyl)phenyl-4-yl]-3-(trifluoromethyl)-1H-pyrazol-1-yl}ethyl)morpholine] | > 6.00 |
| CN1CCN(CCn2nc(C(F)(F)F)cc2-c2ccc(-c3cccc(S(C)(=O)=O)c3)cc2)CC1 [Example 1223, 1-methyl-4-(2-{5-[3′-(methylsulfonyl)biphenyl-4-yl]-3-(trifluoromethyl)-1H-pyrazol-1-yl}ethyl)piperazine] | 5.00 to 6.00 |
| CC(=O)c1cc(-c2ccccc2Cl)n(-c2ccc(-c3cccc(S(C)(=O)=O)c3)cc2)n1 [Example 1224, 1-{5-(2-chlorophenyl)-1-[3′-(methylsulfonyl)biphenyl-4-yl]-1H-pyrazol-3-yl}ethanone] | > 6.00 |
| CS(=O)(=O)c1cccc(-c2ccc(-n3nc(C(O)(C(F)(F)F)C(F)(F)F)cc3-c3ccccc3Cl)cc2)c1 [Example 1225, 2-{5-(2-chlorophenyl)-1-[3′-(methylsulfonyl)biphenyl-4-yl]-1H-pyrazol-3-yl}-1,1,1,3,3,3-hexafluoropropan-2-ol] | > 6.00 |
| CC(C)(O)c1cccc(-n2nc(C(C)(C)O)cc2-c2ccc(-c3cccc(S(C)(=O)=O)c3)s2)c1 [Example 1226, 2-{3-[3-(1-hydroxy-1-methylethyl)-5-{5-[3-(methylsulfonyl)phenyl]-2-thienyl}-1H-pyrazol-1-yl]phenyl}propan-2-ol] | 5.00 to 6.00 |
| CS(=O)(=O)c1cccc(-c2ccc(-c3cc(C(F)(F)F)nn3-c3c(Cl)cccc3Cl)s2)c1 [Example 1227, 1-(2,6-dichlorophenyl)-5-{5-[3-(methylsulfonyl)phenyl]-2-thienyl}-3-(trifluoromethyl)-1H-pyrazole] | > 6.00 |
| CS(=O)(=O)c1cccc(-c2ccc(-c3cc(C4(O)CCCC4)nn3-c3ccccc3Cl)s2)c1 [Example 1228, 1-[1-(2-chlorophenyl)-5-{5-[3-(methylsulfonyl)phenyl]-2-thienyl}-1H-pyrazol-3-yl]cyclopentanol] | > 6.00 |
| CC(C)(O)c1ccccc1-n1nc(C(F)(F)F)cc1-c1ccc(-c2cccc(S(C)(=O)=O)c2)s1 [Example 1229] | > 6.00 |
| COC(=O)c1cc(-c2ccccc2Cl)n(-c2ccc(-c3cccc(S(C)(=O)=O)c3)cn2)n1 [Example 1230, methyl 5-(2-chlorophenyl)-1-{5-[3-(methylsulfonyl)phenyl]pyridin-2-yl}-1H-pyrazole-3-carboxylate] | 5.00 to 6.00 |
| CS(=O)(=O)c1cccc(-c2ccc(-n3nc(C(F)(F)F)cc3-c3ccccc3C(F)(F)F)nc2)c1 [Example 1231, 5-[3-(methylsulfonyl)phenyl]-2-{3-(trifluoromethyl)-5-[2-(trifluoromethyl)phenyl]-1H-pyrazol-1-yl}pyridine] | > 6.00 |
| CS(=O)(=O)c1cccc(-c2ccc(-c3cc(C(=O)NCCc4ccccn4)nn3-c3ccccc3Cl)s2)c1 [Example 1232, 1-(2-chlorophenyl)-5-{5-[3-(methylsulfonyl)phenyl]-2-thienyl}-N-(2-pyridin-2-ylethyl)-1H-pyrazole-3-carboxamide] | 5.00 to 6.00 |
| CC(C)(O)c1cc(-c2ccccc2Cl)n(-c2ccc(-c3cccc(S(C)(=O)=O)c3)cn2)n1 [Example 1233, 2-[5-(2-chlorophenyl)-1-{5-[3-(methylsulfonyl)phenyl]pyridin-2-yl}-1H-pyrazol-3-yl]propan-2-ol] | 5.00 to 6.00 |
| COC(=O)c1cc(-c2cc(-c3cccc(S(C)(=O)=O)c3)co2)n(-c2ccccc2Cl)n1 [Example 1234, methyl 1-(2-chlorophenyl)-5-{4-[3-(methylsulfonyl)phenyl]furan-2-yl}-1H-pyrazole-3-carboxylate] | > 6.00 |
| CC(C)(O)c1cc(-c2cc(-c3cccc(S(C)(=O)=O)c3)co2)n(-c2ccccc2Cl)n1 [Example 1235, 2-[1-(2-chlorophenyl)-5-{4-[3-(methylsulfonyl)phenyl]furan-2-yl}-1H-pyrazol-3-yl]propan-2-ol] | 5.00 to 6.00 |
| CS(=O)(=O)c1cccc(-c2ccc(-c3cc(C(=O)NCC(F)(F)F)nn3-c3ncccc3C(F)(F)F)s2)c1 [Example 1236, 5-{5-[3-(methylsulfonyl)phenyl]-2-thienyl}-N-(2,2,2-trifluoroethyl)-1-[3-(trifluoromethyl)pyridin-2-yl]-1H-pyrazole-3-carboxamide] | 5.00 to 6.00 |

| Structure (SMILES) | pEC50 |
| --- | --- |
| CON(C)C(=O)c1cc(-c2ccc(-c3cccc(S(C)(=O)=O)c3)s2)n(-c2ncccc2C(F)(F)F)n1 [Example 1237, N-methyl-N-(methyloxy)-5-{5-[3-(methylsulfonyl)phenyl]-2-thienyl}-1-[3-(trifluoromethyl)pyridin-2-yl]-1H-pyrazole-3-carboxamide] | 5.00 to 6.00 |
| COC(=O)c1cc(-c2ccc(-c3cccc(S(C)(=O)=O)c3)s2)n(-c2c(Cl)cccc2Cl)n1 [Example 1238, methyl 1-(2,6-dichlorophenyl)-5-{5-[3-(methylsulfonyl)phenyl]-2-thienyl}-1H-pyrazole-3-carboxylate] | > 6.00 |
| CC(C)(O)c1cc(-c2ccc(-c3cccc(S(C)(=O)=O)c3)s2)n(-c2c(Cl)cccc2Cl)n1 [Example 1239, 2-[1-(2,6-dichlorophenyl)-5-{5-[3-(methylsulfonyl)phenyl]-2-thienyl}-1H-pyrazol-3-yl]propan-2-ol] | > 6.00 |
| CC(C)(O)c1cccc(-c2ccc(-c3cc(C(F)(F)F)nn3-c3ccccc3Cl)s2)c1 [Example 1240, 2-(3-{5-[1-(2-chlorophenyl)-3-(trifluoromethyl)-1H-pyrazol-5-yl]-2-thienyl}phenyl)propan-2-ol] | > 6.00 |
| CC(C)(O)c1ccc(-c2ccc(-c3cc(C(F)(F)F)nn3-c3ccccc3Cl)s2)cc1 [Example 1241, 2-(4-{5-[1-(2-chlorophenyl)-3-(trifluoromethyl)-1H-pyrazol-5-yl]-2-thienyl}phenyl)propan-2-ol] | 5.00 to 6.00 |
| CC(=O)c1cc(-c2ccc(-c3cccc(S(C)(=O)=O)c3)s2)n(-c2c(Cl)cccc2Cl)n1 [Example 1242, 1-[1-(2,6-dichlorophenyl)-5-{5-[3-(methylsulfonyl)phenyl]-2-thienyl}-1H-pyrazol-3-yl]ethanone] | > 6.00 |
| CC(C)(O)c1cc(-c2ccc(-c3cccc(S(C)(=O)=O)c3)s2)n(Cc2ccc(F)cc2F)n1 [Example 1243, 2-(1-[(2,4-difluorophenyl)methyl]-5-{5-[3-(methylsulfonyl)phenyl]-2-thienyl}-1H-pyrazol-3-yl)propan-2-ol] | > 6.00 |
| COC(=O)c1cc(-c2ccccc2Cl)n(-c2ccc(-c3cccc(S(C)(=O)=O)c3)nc2)n1 [Example 1244, methyl 5-(2-chlorophenyl)-1-{6-[3-(methylsulfonyl)phenyl]pyridin-3-yl}-1H-pyrazole-3-carboxylate] | 5.00 to 6.00 |
| CS(=O)(=O)c1cccc(-c2ccc(-c3cc(C4(O)CC4)nn3-c3ccccc3Cl)s2)c1 [Example 1245, 1-[1-(2-chlorophenyl)-5-{5-[3-(methylsulfonyl)phenyl]-2-thienyl}-1H-pyrazol-3-yl]cyclopropanol] | > 6.00 |
| CC(C)(O)c1cc(-c2ccccc2Cl)n(-c2ccc(-c3cccc(S(C)(=O)=O)c3)nc2)n1 [Example 1246, 2-[5-(2-chlorophenyl)-1-(6-[3-(methylsulfonyl)phenyl]pyridin-3-yl}-1H-pyrazol-3-yl]propan-2-ol] | 5.00 to 6.00 |
| CS(=O)(=O)c1cc(-c2ccc(-c3cc(C(F)(F)F)nn3-c3cc(Cl)ccc3Cl)s2)ccc1O [Example 1247, 4-{5-[1-(2,5-dichlorophenyl)-3-(trifluoromethyl)-1H-pyrazol-5-yl]-2-thienyl}-2-(methylsulfonyl)phenol] | 5.00 to 6.00 |
| CC(=O)c1cc(-c2ccccc2Cl)n(-c2ccc(-c3cccc(S(C)(=O)=O)c3)cn2)n1 [Example 1248, 1-[5-(2-chlorophenyl)-1-(5-[3-(methylsulfonyl)phenyl]pyridin-2-yl}-1H-pyrazol-3-yl]ethanone] | 5.00 to 6.00 |
| CC(=O)c1cc(-c2ccccc2Cl)n(-c2ccc(-c3cccc(S(C)(=O)=O)c3)nc2)n1 [Example 1249, 1-[5-(2-chlorophenyl)-1-{6-[3-(methylsulfonyl)phenyl]pyridin-3-yl}-1H-pyrazol-3-yl]ethanone] | 5.00 to 6.00 |
| CC(C)(O)c1cc(-c2cc(-c3cccc(S(C)(=O)=O)c3)cs2)n(-c2ccccc2Cl)n1 [Example 1250, 2-[1-(2-chlorophenyl)-5-{4-[3-(methylsulfonyl)phenyl]-2-thienyl}-1H-pyrazol-3-yl]propan-2-ol] | 5.00 to 6.00 |
| Cc1ccc(-n2nc(C(F)(F)F)cc2-c2ccc(-c3cccc(S(C)(=O)=O)c3)s2)c(Cl)c1O [Example 1251, 2-chloro-6-methyl-3-[5-{5-[3-(methylsulfonyl)phenyl]-2-thienyl}-3-(trifluoromethyl)-1H-pyrazol-1-yl]phenol] | 5.00 to 6.00 |
| CC(C)(O)c1cccc(-c2ccc(-c3cc(C(F)(F)F)nn3-c3ncccc3C(F)(F)F)s2)c1 [Example 1252, 2-[3-(5-{3-(trifluoromethyl)-1-[3-(trifluoromethyl)pyridin-2-yl]-1H-pyrazol-5-yl}-2-thienyl)phenyl]propan-2-ol] | 5.00 to 6.00 |
| CC(C)(O)c1ccc(-c2ccc(-c3cc(C(F)(F)F)nn3-c3ncccc3C(F)(F)F)s2)cc1 [Example 1253, 2-[4-(5-{3-(trifluoromethyl)-1-[3-(trifluoromethyl)pyridin-2-yl]-1H-pyrazol-5-yl}-2-thienyl)phenyl]propan-2-ol] | 5.00 to 6.00 |

— US8703805B2 (Exelixis Patent Company LLC, priority 2005, dated 2014)
